pIC50: −log10 of the molar value.
Tests used:
MOLM14 cells = assay: Proliferation (spheroid) assay, MOLM14; assay type: cell-based; conditions: Homo sapiens, MOLM-14, 192 h, 8 days; read-out: spheroid assay_MOLM14 IC50
Experimental: The anti-proliferative effect of menin/MLL protein/protein interaction inhibitor test compounds was assessed in human leukemia cell lines. The cell line MOLM14 harbors a MLL translocation and expresses the MLL fusion protein MLL-AF9, respectively, as well as the wildtype protein from the second allele. OCI-AML3 cells that carry the NPM1c gene mutation were also tested. […] KO-52 was used as a control cell line containing two MLL (KMT2A) wildtype alleles in order to exclude compounds that display general cytotoxic effects.
MOLM14 cells were cultured in RPMI-1640 (Sigma Aldrich) supplemented with 10% heat-inactivated fetal bovine serum (HyClone), 2 mM L-glutamine (Sigma Aldrich) and 50 μg/ml gentamycin (Gibco). KO-52 and OCI-AML3 cell lines were propagated in alpha-MEM (Sigma Aldrich) supplemented with 20% heat-inactivated fetal bovine serum (HyClone), 2 mM L-glutamine (Sigma Aldrich) and 50 μg/ml gentamycin (Gibco).
In order to assess the anti-proliferative effects, 200 MOLM14 cells, […] or 300 KO-52 cells were seeded in 200 μl media per well in 96-well round bottom, ultra-low attachment plates (Costar, catalogue number 7007). Cell seeding numbers were chosen based on growth curves to ensure linear growth throughout the experiment. Test compounds were added at different concentrations and the DMSO content was normalized to 0.3%. Cells were incubated for 8 days at 37° C. and 5% CO2. Spheroid like growth was measured in real-time by live-cell imaging (IncuCyteZOOM, Essenbio, 4× objective) acquiring images at day 8. Confluence (%) as a measure of spheroid size was determined using an integrated analysis tool.
In order to determine the effect of the test compounds over time, the confluence in each well as a measure of spheroid size, was calculated. Confluence of the highest dose of a reference compound was used as baseline for the LC (Low control) and the confluence of DMSO treated cells was used as 0% cytotoxicity (High Control, HC).
Absolute IC50 values were calculated as percent change in confluence as follows: • LC=Low Control: cells treated with e.g. 1 μM of the cytotoxic agent staurosporin, or e.g. cells treated with a high concentration of an alternative reference compound • HC═High Control: Mean confluence (%) (DMSO treated cells) • % Effect=100−(100*(Sample-LC)/(HC-LC))
GraphPad Prism (version 7.00) was used to calculate the ICso. Dose-response equation was used for the plot of % Effect vs Log10 compound concentration with a variable slope and fixing the maximum to 100% and the minimum to 0%.

MEIS1 mRNA = MEIS1 mRNA expression assay (Quantigene Singleplex) in MOLM14 cells; assay type: cell-based; conditions: Homo sapiens, MOLM-14, 48 h
Experimental: 2b) MEIS1 mRNA Expression Assay
MEIS1 mRNA expression upon treatment of compound was examined by Quantigene Singleplex assay (Thermo Fisher Scientific). This technology allows for direct quantification of mRNA targets using probes hybridizing to defined target sequences of interest and the signal is detected using a Multimode plate reader Envision (PerkinElmer). The MOLM14 cell line was used for this experiment. Cells were plated in 96-well plates at 3,750 cells/well in the presence of increasing concentrations of compounds. After incubation of 48 hours with compounds, cells were lysed in lysis buffer and incubated for 45 minutes at 55° C. Cell lysates were mixed with human MEIS1 specific capture probe or human RPL28 (Ribosomal Protein L28) specific probe as a normalization control, as well as blocking probes. Cell lysates were then transferred to the custom assay hybridization plate (Thermo Fisher Scientific) and incubated for 18 to 22 hours at 55° C. Subsequently, plates were washed to remove unbound materials followed by sequential addition of preamplifiers, amplifiers, and label probe. Signals (=gene counts) were measured with a Multimode plate reader Envision. IC50s were calculated by dose-response modelling using appropriate software. For all non-housekeeper genes response equal counts corrected for background and relative expression. For each sample, each test gene signal (background subtracted) was divided by the normalization gene signal (RPL28: background subtracted). Fold changes were calculated by dividing the normalized values for the treated samples by the normalized values for the DMSO treated sample. Fold changes of each target gene were used for the calculation of IC50s.

[1] = test system: MOLM-13 tumors in NSG mice; assay: Efficacy (survival) in disseminated MOLM-13 (KMT2A-rearranged) IV model in NSG mice; assay type: in vivo; conditions: NSG mice with established MOLM-13 tumors, 4 weeks treatment; azacitidine 2 mg/kg ip QD × 7, venetoclax 100 mg/kg po QD × 28, Compound 51 2 mg/kg po QD × 28 (Table 6)
Experimental: 4) Efficacy of Menin-KMT2A Inhibitor in Combination with Venetoclax, and Optionally, Azacitidine, in MOLM-13 (KMT2A-Rearranged) IV Model in NSG Mice
Compound 51 was formulated in purified pyrogen-free deionized water, pH 4.0 and prepared to reach a total volume of 8 mL/kg. Doses were adjusted by individual body weight each day. Working stocks of Compound 51 were prepared once per week for each study and stored at 25° C.
Female NSG (NOD.Cg-Prkdc^scid Il2rg^tm1Wj1/SzJ) mice were used when they were approximately 6 to 8 weeks of age and weighed approximately 25 g. All animals could acclimate and recover from any shipping-related stress for a minimum of 7 days prior to experimental use. Autoclaved water and irradiated food were provided ad libitum, and the animals were maintained on a 12 hour light and dark cycle. Cages, bedding, and water bottles were autoclaved before use and changed weekly. The tissue culture and cell injection reagents are summarized below in Table 5.
Tumor Model and Cell Culture Method
Human AML MOLM-13 cells were cultured at 37° C., 5% CO2 in the indicated complete culture media (RPMI 1640+10% HI-FBS+2 mM L-glutamine+50 μg/ml Gentamycin). Cells were harvested while in logarithmic growth and resuspended in cold (4° C.) Roswell Park Memorial Institute (RPMI) 1640 in serum-free medium.
For the disseminated MOLM-13 model, each mouse received 1×10^5 cells via IV injection in a total volume of 0.2 mL using a 26-gauge needle.
Day 0 is the day of tumor cell implantation and study initiation.
Mice bearing IV MOLM-13 xenograft tumors were randomly assigned to treatment groups 5 days post-tumor cell engraftment.
Animals were monitored daily for clinical signs related to either compound toxicity or tumor burden (i.e., hind limb paralysis, lethargy, etc.).
For survival assessment, results were plotted as the percentage survival against days post tumor implant. Negative clinical signs and/or ≥20% body weight loss was used as a surrogate endpoint for death. Median survival was determined utilizing Kaplan-Meier survival analysis. The percent increased life span (ILS) was calculated as: ((median survival day of treated group−median survival day of control group)/median survival day of control group)×100. Animals failing to reach the surrogate endpoint due to adverse clinical signs or death unrelated to treatment were censored for the survival assessment. As defined by NCI criteria, ≅25% ILS is considered biologically significant. (Johnson J I et al. Br J Cancer. 2001. 84(10), 1424-1431).
Survival and body weight data were graphically represented utilizing Prism (Version 9). Statistical significance for body weights was evaluated as described above. Statistical significance was evaluated for Kaplan-Meier survival plots comparing therapeutic treatment group vs. appropriate vehicle-treated control using log-rank (Mantel-Cox) test in R software version 3.4.2. Differences between groups were considered significant when the p value was ≤0.05.
The disseminated MOLM-13 model described above was used to examine the efficacy of menin-KMT2A-inhibitor (formulated as described above) in combination with venetoclax (formulated in polyethylene glycol [PEG]-400/Phosal50/dimethyl sulfoxide [DMSO]), and optionally azacitidine (formulated in 0.9% saline). Treatment with compound(s) was initiated 5 days after cell injection. Compound 51 was given in the morning, and venetoclax or azacitidine was given in the afternoon, approximately 6-8 hr apart.

Menin/MLL = target: T1, Menin/MLL (Homo sapiens, UniProt O00255, T541A); assay: Menin/MLL homogenous time-resolved fluorescence (HTRF) assay; assay type: binding; conditions: 30 min incubation of test compound with terbium chelate-labeled menin
T1 construct: Menin (a.a 1-610-6×his tag, 2.3 mg/mL in 20 mM Hepes)
T1 sequence (O00255 with tags, fused parts or gaps T541A): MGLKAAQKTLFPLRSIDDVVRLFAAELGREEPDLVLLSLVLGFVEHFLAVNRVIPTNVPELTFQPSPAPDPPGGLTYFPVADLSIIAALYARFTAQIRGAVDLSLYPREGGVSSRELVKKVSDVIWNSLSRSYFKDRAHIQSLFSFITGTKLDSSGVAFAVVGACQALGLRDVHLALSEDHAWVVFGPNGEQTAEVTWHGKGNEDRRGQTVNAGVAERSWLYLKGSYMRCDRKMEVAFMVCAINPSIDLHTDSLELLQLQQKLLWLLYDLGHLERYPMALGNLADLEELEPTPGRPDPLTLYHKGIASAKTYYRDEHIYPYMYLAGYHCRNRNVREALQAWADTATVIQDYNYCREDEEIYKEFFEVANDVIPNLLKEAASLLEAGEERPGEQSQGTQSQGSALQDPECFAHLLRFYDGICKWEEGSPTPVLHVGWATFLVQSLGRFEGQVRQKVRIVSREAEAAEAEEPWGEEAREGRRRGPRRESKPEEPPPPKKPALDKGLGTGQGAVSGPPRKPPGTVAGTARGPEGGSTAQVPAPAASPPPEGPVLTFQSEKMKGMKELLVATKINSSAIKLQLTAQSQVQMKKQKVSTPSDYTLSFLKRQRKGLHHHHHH
Experimental: 1) Menin/MLL Homogenous Time-Resolved Fluorescence (HTRF) Assay
To an untreated, white 384-well microtiter plate was added 40 nL 200× test compound in DMSO and 4 μL 2× terbium chelate-labeled menin (vide infra for preparation) in assay buffer (40 mM Tris.HCl, pH 7.5, 50 mM NaCl, 1 mM DTT (dithiothreitol) and 0.05% Pluronic F-127). After incubation of test compound and terbium chelate-labeled menin for 30 min at ambient temperature, 4 μL 2×FITC-MBM1 peptide (FITC-β-alanine-[…]-NH2) (“FITC” means fluorescein isothiocyanate) in assay buffer was added, the microtiter plate centrifuged at 1000 rpm for 1 min and the assay mixtures incubated for 15 min at ambient temperature. The relative amount of menin-FITC-MBM1 complex present in an assay mixture is determined by measuring the homogenous time-resolved fluorescence (HTRF) of the terbium/FITC donor/acceptor fluorphore pair using an EnVision microplate reader (ex. 337 nm/terbium em. 490 nm/FITC em. 520 nm) at ambient temperature. The degree of fluorescence resonance energy transfer (the HTRF value) is expressed as the ratio of the fluorescence emission intensities of the FITC and terbium fluorophores (F^em 520 nm/F^em 490 nm). […]
Compound potencies were determined by first calculating % inhibition at each compound concentration according to equation 1: […]

Compound | pIC50 (MOLM14 cells) | pIC50 (MEIS1 mRNA) | pIC50 (Menin/MLL) | % ILS (increased life span) [1]
CNC(=O)N1CCC(CN2CC[C@H](Cc3cn(-c4ccc(F)cc4C(=O)N(C)C(C)C)c4cncc(C)c34)C2)CC1 (single isomer, unassigned) [Compound 101] | 7.39 | 8.15 | – | –
Nc1ncn([C@@H]2O[C@H](CO)[C@@H](O)[C@H]2O)c(=O)n1 [Azacitidine, azacitidine, reference compound] | – | – | – | 37%
CC(=O)N1CCC(N2CC[C@H](Cc3cn(-c4ccc(F)cc4C(=O)N(C)C(C)C)c4cncc(C)c34)C2)CC1 [Compound 156] | 7.38 | 6.73 | – | –
Cc1cncc2c1c(CC1CN(CC3CCNC(=O)C3)C1)cn2-c1ccc(F)cc1C(=O)N(C)C(C)C (stereo not shown) [Compound 196] | – | – | 9.72 | –
CC1(C)CCC(CN2CCN(c3ccc(C(=O)NS(=O)(=O)c4ccc(NCC5CCOCC5)c([N+](=O)[O-])c4)c(Oc4cnc5[nH]ccc5c4)c3)CC2)=C(c2ccc(Cl)cc2)C1 [Venetoclax, venetoclax, reference compound] | – | – | – | 11%

Now from value to compound, other results behind:

pIC50 (MOLM14 cells) | pIC50 (MEIS1 mRNA) | pIC50 (Menin/MLL) | Compound | % ILS (increased life span) [1]
8.30 | 8.15 | – | COCC(=O)N1CCC(C(C)N2CCC(Cc3cn(-c4ccc(F)cc4C(=O)N(C)C(C)C)c4cncc(C)c34)C2)CC1 (single isomer, unassigned) [Compound 117a] | –
– | – | 9.63 | CC(=O)N1CC2CC(N3CC(Cc4cn(-c5ccc(F)cc5C(=O)N(C)C(C)C)c5cncc(C)c45)C3)CC2C1 (stereo not shown) [Compound 294a] | –
